Marks after values point to notes of the source that are not given here.
Assays:
hEPO mRNA [1] = experiment: hEPO expression after intramuscular administration to mice; assay type: in vivo; conditions: for Fold increase in hEPO concentration relative to MC3: mice, 0.01 mpk, 6 hr time point; for Lipid/MC3 6 h timepoint / Lipid/MC3 AUC: Table 3I, hEPO; for Novel lipid/MC3 ratio, 6 hr. timepoint, i.m. hEPO: relative to MC3, Table 3G; for Novel lipid/MC3 expression ratio, 6 hr. time point, i.m. hEPO: relative to MC3 formulation
Protocol: The expression of hEPO and cytokine induction in mice intravenously administered a nanoparticle composition at a dose of 0.5 mpk were measured at 3, 6, and 24 hours. […] The expression of hEPO in mice intramuscularly administered a nanoparticle composition from Table 1B at a dose of 0.01 mpk were measured at 3, 6, and 24 hours.
Blood collection and analysis for hEPO. Blood was collected from mice or rats via the tail vein and hEPO concentrations were determined using a hEPO ELISA assay.

luciferase (Luc) mRNA [2] = experiment: Luc expression, whole body bioluminescence after intravenous administration to mice; assay type: in vivo; conditions: for i.v. Lipid/MC3 0.5 mpk, Luc, 6 h: Table 3B; for Total Flux 3 hours / Total Flux 6 hours / Total Flux 24 hours: Luc mRNA; for Fold increase in total body Luc Flux relative to MC3 at 6 h: Table 3A; for Fold increase in total body Luc Flux relative to MC3 at 6 h / flux measured at 6 h relative to the MC3 formulation: i.v. administration; for flux measured at 6 h relative to the MC3 formulation: in words; for Novel lipid/MC3 expression ratio, 6 hr. time point, i.v.: luciferase, intravenous, relative to MC3 formulation
Outline: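 Bioluminescence, read as region-of-interest total flux at 3, 6 and 24 h, followed a single 0.5 mg/kg intravenous dose of Luc mRNA-loaded nanoparticles in mice (n=6). Luciferin substrate (200 μL, 15 mg/mL in PBS) was injected intraperitoneally into CD-1 mice 15 minutes ahead of each imaging point.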

[3] = Particle size and polydispersity index of nanoparticle compositions (Zetasizer Nano ZS); assay type: physicochemical
Outline: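 Zetasizer Nano ZS; samples in 1×PBS; read-out: particle size plus polydispersity index.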

luciferase mRNA = experiment: Luciferase expression after subcutaneous administration to mice; assay type: in vivo, female CD-1 mice; conditions: for Novel lipid/MC3 expression ratio, 6 hr. time point, s.c. Luc 0.5 mpk / Novel lipid/MC3 expression ratio, s.c. Luc 0.5 mpk (AUC): relative to MC3; for Novel lipid/MC3 expression ratio, 6 hr. time point, s.c. Luc 0.5 mpk / Novel lipid/MC3 expression ratio, s.c. Luc 0.5 mpk (AUC) / Lipid/MC3 AUC ratio / AUC (luciferase expression): 0.5 mpk; for Lipid/MC3 AUC ratio: luciferase; for AUC (luciferase expression): whole body BLI; for Novel lipid/MC3 ratio, s.c. Luc 6 hr.: relative to MC3, Table 3G
Outline: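 Female CD-1 mice given luciferase mRNA in lipid nanoparticle formulations subcutaneously at 0.5 mpk. Expression read by whole-body bioluminescence imaging at 3, 6 and 24 h, with ex vivo liver, spleen and injection-site luminescence at 24 h.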

hEPO mRNA [4] = experiment: hEPO expression after subcutaneous administration to mice; assay type: in vivo, female CD-1 mice; conditions: relative to MC3
Protocol: The effect of the lipids of the disclosure on protein expression upon subcutaneous administration was studied. Formulations containing lipids of the disclosure and an mRNA expressing luciferase or hEPO were administered subcutaneously to female CD-1 mice at 0.5 mpk. Expression levels were obtained via whole body luminescent imaging (BLI) at 3, 6 and 24 hours after injection and expression levels in liver, spleen and at the injection site were evaluated ex vivo after 24 hours. […] See also Tables 35 and 36, and FIGS. 19 and 27.
Table 36 summarizes the hEPO expression levels using various nanoparticle compositions of the disclosure as compared to the hEPO expression level using a formulation containing MC3 or Compound 18, following subcutaneous administration, as described above.

luciferase (Luc) mRNA [5] = experiment: Luc expression in liver, lung, spleen and femur 6 hours after intravenous administration; assay type: in vivo; conditions: mice, 0.5 mpk; for Total Flux Liver / Total Flux Lung / Total Flux Spleen: intravenous
Outline: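 LNP-formulated mRNA given IV to mice (n=3) at 0.5 mpk; at 6 h, bioluminescence imaged ex vivo 15 min after IP D-luciferin (15 mg/mL, 200 μL), organs imaged within 25 min. Values are total flux by region of interest.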

[6] = Table 1A, lipid:DSPC:cholesterol:PEG-DMG 50:10:38.5:1.5 mol %
[7] = Table 1B, formulated with hEPO mRNA
[8] = Table 1E, compositions for subcutaneous administration
[9] = Table 1D, for subcutaneous administration, # formulated with hEPO mRNA
[10] = Table 1C, compositions for subcutaneous administration

SMILES	Fold increase in hEPO concentration relative to MC3 (hEPO mRNA [1])	Total Flux 3 hours (luciferase (Luc) mRNA [2]; mice, i.v., 0.5 mg/kg)	Total Flux 6 hours (luciferase (Luc) mRNA [2]; mice, i.v., 0.5 mg/kg)	Total Flux 24 hours (luciferase (Luc) mRNA [2]; mice, i.v., 0.5 mg/kg)	PDI ([3]; Table 1A)	Size (nm) [3, 6] [nm]	PDI [3, 7]	Size (nm) [3, 7] [nm]	PDI [3, 8]	Size (nm) [3, 8] [nm]	Novel lipid/MC3 expression ratio, 6 hr. time point, s.c. Luc 0.5 mpk (luciferase mRNA)	Novel lipid/MC3 expression ratio, 6 hr. time point, s.c. hEPO 0.5 mpk (hEPO mRNA [4])	Total Flux Liver (luciferase (Luc) mRNA [5])	Total Flux Lung (luciferase (Luc) mRNA [5])	Total Flux Spleen (luciferase (Luc) mRNA [5])	Novel lipid/MC3 expression ratio, 6 hr. time point, i.v. (luciferase (Luc) mRNA [2])	PDI [3, 9]	Size (nm) [3, 9] [nm]	further results
CCCCCCCCCOC(=O)CCCCCCCN(CCCCCCCC(=O)OC(CCCCCCCC)CCCCCCCC)CCCNS(C)(=O)=O [Compound 109, Heptadecan-9-yl 8-((3-(methylsulfonamido)propyl)(8-(nonyloxy)-8-oxooctyl)amino)octanoate]	5.3	3.82E+09	4.88E+09	8.06E+07	0.13	81.1	0.099	75	0.10	67.0	0.49	6.78	8.17E+08	6.03E+06	4.81E+07	–	–	–	i.v. Lipid/MC3 0.5 mpk, Luc, 6 h (luciferase (Luc) mRNA [2]; i.v.): 0.3
CCCCCCCCC(CC)OC(=O)CCCCCCCN(CCO)CCCCCCCC(=O)OC(CCCCCCCC)CCCCCCCC (centres unmarked) [Compound 49, heptadecan-9-yl 8-((2-hydroxyethyl)(8-oxo-8-(undecan-3-yloxy)octyl)amino)octanoate]	–	4.48E+10	1.08E+11	1.24E+09	0.14	88	–	–	–	–	–	8.01	5.68E+09	2.52E+07	1.87E+08	9.81	0.09	74.0	Lipid/MC3 6 h timepoint (hEPO mRNA [1]): 11.0; Lipid/MC3 AUC (hEPO mRNA [1]): 9.9; Fold increase in total body Luc Flux relative to MC3 at 6 h (luciferase (Luc) mRNA [2]): 9.81; flux measured at 6 h relative to the MC3 formulation (luciferase (Luc) mRNA [2]): ten times higher
CCCCCCCCC(C)OC(=O)CCCCCCCN(CCO)CCCCCCCC(=O)OC(CCCCCCCC)CCCCCCCC (centres unmarked) [Compound 48, decan-2-yl 8-((8-(heptadecan-9-yloxy)-8-oxooctyl)(2-hydroxyethyl)amino)octanoate]	–	8.73E+10	1.10E+11	2.92E+09	0.092	82.3	–	–	–	–	–	8.09	1.08E+10	3.31E+07	3.49E+08	–	0.09	79.8	Lipid/MC3 6 h timepoint (hEPO mRNA [1]): 8.2; Lipid/MC3 AUC (hEPO mRNA [1]): 7.5; Lipid/MC3 Luc expression (luciferase (Luc) mRNA [2]; 0.5 mpk dose to mouse, 6 hours after administration): 10.0; Fold increase in total body Luc Flux relative to MC3 at 6 h (luciferase (Luc) mRNA [2]): 10.0; flux measured at 6 h relative to the MC3 formulation (luciferase (Luc) mRNA [2]): ten times higher; total flux at 3 hours (luciferase (Luc) mRNA [2]; mice, i.v., 0.5 mg/kg, comparison in words): highest; PDI ([3]; nanoparticle composition with hEPO mRNA (Table 30)): 0.176; Size ([3]; nanoparticle composition with hEPO mRNA, standard MC3 formulation (Table 30)): 70.6 nm; Flux in the liver (luciferase (Luc) mRNA [5]; i.v., in words): highest; Flux in the spleen (luciferase (Luc) mRNA [5]; i.v., in words): highest
CCCCCCCCCOC(=O)CCCCCCCN(CCCCCCCC(=O)OC(CCCCCCCC)CCCCCCCC)CCCNC(=O)N(C)C [Compound 110, Heptadecan-9-yl 8-((3-(3,3-dimethylureido)propyl)(8-(nonyloxy)-8-oxooctyl)amino)octanoate]	1.2	1.89E+09	2.57E+09	1.11E+08	0.21	91.5	0.24	73.3	–	–	–	–	2.30E+08	5.76E+06	1.41E+08	–	–	–	Novel lipid/MC3 ratio, 6 hr. timepoint, i.m. hEPO (hEPO mRNA [1]): 1.2; PDI [3, 10]: 0.21; Size (nm) [3, 10]: 91.5 nm; Novel lipid/MC3 expression ratio, s.c. Luc 0.5 mpk (AUC) (luciferase mRNA): (AUC: 0.76); Lipid/MC3 AUC ratio (luciferase mRNA): 0.76; AUC (luciferase expression) (luciferase mRNA): 1.2968E+10 (p/s) * h; Novel lipid/MC3 ratio, s.c. Luc 6 hr. (luciferase mRNA): 0.78
CCCC/C=C\CCC(CC/C=C\CCCC)OC(=O)CCCCCCCN(CCO)CCCCCCCC(=O)OCCCCCCCCC [Compound 60, (5Z,12Z)-Heptadeca-5,12-dien-9-yl 8-((2-hydroxyethyl)(8-(nonyloxy)-8-oxooctyl)amino)octanoate]	11.2	7.91E+10	9.04E+10	2.90E+09	0.12	95.1	0.15	88.9	0.12	93.3	1.72	6.59	1.54E+09	6.25E+06	7.12E+06	3.37	0.13	87.4	Novel lipid/MC3 expression ratio, 6 hr. time point, i.m. hEPO (hEPO mRNA [1]): 11.2
CCCCCCCCCOC(=O)CCCCCCCN(CCCCCCCC(=O)OC(CCCCCCCC)CCCCCCCC)CCCNC(=S)N(C)C [Compound 111, Heptadecan-9-yl 8-((3-(3,3-dimethylthioureido)propyl)(8-(nonyloxy)-8-oxooctyl)amino)octanoate]	10.6	1.89E+10	3.57E+10	8.86E+08	0.22	116.7	0.13	93.3	0.16	88.9	1.16	6.40	4.83E+09	2.57E+07	2.44E+08	2.59	0.12	94.5	Novel lipid/MC3 expression ratio, 6 hr. time point, i.m. hEPO (hEPO mRNA [1]): 10.6; i.v. Lipid/MC3 0.5 mpk, Luc, 6 h (luciferase (Luc) mRNA [2]; i.v.): 2.6
CCCCCCCCCOC(=O)CCCCCCCN(CCCCCCCC(=O)OC(CCCCCCCC)CCCCCCCC)CCCNC(=O)NC [Compound 112, Heptadecan-9-yl 8-((3-(3-methylureido)propyl)(8-(nonyloxy)-8-oxooctyl)amino)octanoate]	1.6	9.69E+08	1.04E+09	2.75E+07	0.22	83.7	0.21	60.6	–	–	–	–	1.48E+08	1.83E+06	2.75E+07	–	–	–	Novel lipid/MC3 ratio, 6 hr. timepoint, i.m. hEPO (hEPO mRNA [1]): 1.6; PDI [3, 10]: 0.22; Size (nm) [3, 10]: 83.7 nm; Novel lipid/MC3 expression ratio, s.c. Luc 0.5 mpk (AUC) (luciferase mRNA): (AUC: 1.19); Lipid/MC3 AUC ratio (luciferase mRNA): 1.19; AUC (luciferase expression) (luciferase mRNA): 2.0339E+10 (p/s) * h; Novel lipid/MC3 ratio, s.c. Luc 6 hr. (luciferase mRNA): 1.33
